Experiments:
Zymoseptoria tritici = test: Leaf blotch of wheat (SEPTTR) disease control on wheat seedlings; assay type: in vivo; parameters: key to SEPTTR 1DP, HV activity at 100 ppm (% control rating) / SEPTTR 3DC, HV activity at 100 ppm (% control rating) / SEPTTR disease control, 1DP / SEPTTR disease control, 3DC / SEPTTR 1DP disease control rating, HV activity / SEPTTR 3DC disease control rating, HV activity / SEPTTR 3DC, LV activity at 125.1 g/H (% Control rating) / SEPTTR 1DP, LV activity at 125.1 g/H (% Control rating) / SEPTTR 1DP disease control rating, LV activity at 125.1 g/H / SEPTTR 3DC disease control rating, LV activity at 125.1 g/H / SEPTTR 3DC disease control rating, HV activity at 100 ppm / SEPTTR 1DP disease control rating, HV activity at 100 ppm / HV activity at 100 ppm SEPTTR 3DC (disease control rating) / HV activity at 100 ppm SEPTTR 1DP (disease control rating) / LV activity at 125.1 g/H SEPTTR 1DP (disease control rating) / LV activity at 125.1 g/H SEPTTR 3DC (disease control rating): A: > 80; B: ≤ 80; C: Not Tested; D: No Activity Observed in the Reported Assay; settings: for SEPTTR 1DP, LV activity at 125.1 g/H (% Control rating) / SEPTTR 1DP disease control rating, HV activity / LV activity at 125.1 g/H SEPTTR 1DP (disease control rating): 1 Day Protectant; for SEPTTR 3DC, LV activity at 125.1 g/H (% Control rating) / SEPTTR 3DC disease control rating, HV activity / LV activity at 125.1 g/H SEPTTR 3DC (disease control rating): 3 Day Curative; for SEPTTR 1DP disease control rating, HV activity / SEPTTR 3DC disease control rating, HV activity: HV application at 100 ppm; for SEPTTR 1DP disease control rating, HV activity / SEPTTR 3DC disease control rating, HV activity / LV activity at 125.1 g/H SEPTTR 1DP (disease control rating) / LV activity at 125.1 g/H SEPTTR 3DC (disease control rating): wheat leaf blotch
Puccinia triticina = test: Wheat brown rust (PUCCRT) disease control on wheat seedlings; assay type: in vivo; parameters: key to PUCCRT 3DC, HV activity at 100 ppm (% control rating) / PUCCRT disease control, 3DC / PUCCRT 1DP disease control rating, HV activity / PUCCRT 3DC disease control rating, HV activity / PUCCRT 3DC, LV activity at 125.1 g/H (% Control rating) / PUCCRT 1DP, LV activity at 125.1 g/H (% Control rating) / PUCCRT 3DC disease control rating, LV activity at 125.1 g/H / PUCCRT 1DP disease control rating, LV activity at 125.1 g/H / PUCCRT 3DC disease control rating, HV activity at 100 ppm / PUCCRT 1DP disease control rating, HV activity at 100 ppm / HV activity at 100 ppm PUCCRT 3DC (disease control rating) / LV activity at 125.1 g/H PUCCRT 1DP (disease control rating) / LV activity at 125.1 g/H PUCCRT 3DC (disease control rating): A: > 80; B: ≤ 80; C: Not Tested; D: No Activity Observed in the Reported Assay; settings: for PUCCRT 1DP, LV activity at 125.1 g/H (% Control rating) / PUCCRT 1DP disease control rating, HV activity / LV activity at 125.1 g/H PUCCRT 1DP (disease control rating): 1 Day Protectant; for PUCCRT 3DC, LV activity at 125.1 g/H (% Control rating) / PUCCRT 3DC disease control rating, HV activity / LV activity at 125.1 g/H PUCCRT 3DC (disease control rating): 3 Day Curative; for PUCCRT 1DP disease control rating, HV activity / PUCCRT 3DC disease control rating, HV activity: HV application at 100 ppm; for PUCCRT 1DP disease control rating, HV activity / PUCCRT 3DC disease control rating, HV activity / LV activity at 125.1 g/H PUCCRT 1DP (disease control rating) / LV activity at 125.1 g/H PUCCRT 3DC (disease control rating): wheat brown rust
[1] = low volume application, 125.1 g/H
[2] = low volume application, 125.1 g/H, 1 day protectant
[3] = low volume application, 125.1 g/H, 3 day curative
[4] = high volume application, 100 ppm, 1 day protectant
[5] = high volume application, 100 ppm, 3 day curative

## CCCO[C@@H]([C@H](C)OC(=O)[C@H](C)NC(=O)c1nccc(OC)c1OCOC(=O)COCC)[C@H](CC)Oc1ccccc1 [Cmpd 512, (S)-(2S,3S,4S)-4-phenoxy-3-propoxyhexan-2-yl-2-(3-((2-ethoxyacetoxy)methoxy)-4-methoxypicolinamido)propanoate]
Zymoseptoria tritici; [1]
  SEPTTR 1DP, LV activity at 125.1 g/H (% Control rating): B (≤ 80)
  SEPTTR 3DC, LV activity at 125.1 g/H (% Control rating): A (> 80)
Puccinia triticina; [1]
  PUCCRT 1DP, LV activity at 125.1 g/H (% Control rating): A (> 80)
  PUCCRT 3DC, LV activity at 125.1 g/H (% Control rating): A (> 80)

## COc1ccnc(C(=O)N[C@@H](C)C(=O)O[C@@H](C)[C@@H](OCC(C)C)c2ccccc2)c1OC(C)=O [Cmpd 878]
Zymoseptoria tritici; [2]
  SEPTTR 1DP disease control rating, LV activity at 125.1 g/H: B (≤ 80)
Zymoseptoria tritici; [3]
  SEPTTR 3DC disease control rating, LV activity at 125.1 g/H: B (≤ 80)
Puccinia triticina; [2]
  PUCCRT 1DP disease control rating, LV activity at 125.1 g/H: A (> 80)
Puccinia triticina; [3]
  PUCCRT 3DC disease control rating, LV activity at 125.1 g/H: A (> 80)

## COc1ccnc(C(=O)N[C@@H](C)C(=O)O[C@@H](C)COCC2CC2)c1O [Cmpd 338]
Zymoseptoria tritici
  SEPTTR 1DP disease control rating, HV activity: B (≤ 80)
  SEPTTR 3DC disease control rating, HV activity: D
Puccinia triticina
  PUCCRT 1DP disease control rating, HV activity: B (≤ 80)
  PUCCRT 3DC disease control rating, HV activity: D

## COc1ccnc(C(=O)NC(C)C(=O)OC(C)C(OC)c2ccccc2)c1O (stereo not shown) [Cmpd 823]
Zymoseptoria tritici; [4]
  SEPTTR 1DP disease control rating, HV activity at 100 ppm: D
Zymoseptoria tritici; [5]
  SEPTTR 3DC disease control rating, HV activity at 100 ppm: B (≤ 80)
Puccinia triticina; [4]
  PUCCRT 1DP disease control rating, HV activity at 100 ppm: B (≤ 80)
Puccinia triticina; [5]
  PUCCRT 3DC disease control rating, HV activity at 100 ppm: A (> 80)

## COc1ccnc(C(=O)N[C@H](C)C(=O)O[C@H](C)[C@@H](Oc2ccccc2)C(C)C)c1O [Cmpd 351]
Zymoseptoria tritici
  SEPTTR 1DP disease control rating, HV activity: B (≤ 80)
  SEPTTR 3DC disease control rating, HV activity: D
Puccinia triticina
  PUCCRT 1DP disease control rating, HV activity: D
  PUCCRT 3DC disease control rating, HV activity: D

## COc1cc(O[C@@H]([C@H](C)OC(=O)[C@H](C)NC(=O)c2nccc(OC)c2OC(C)=O)C(C)(C)C)ccc1Cl [Cmpd 1070]
Zymoseptoria tritici; [1]
  LV activity at 125.1 g/H SEPTTR 1DP (disease control rating): B (≤ 80)
  LV activity at 125.1 g/H SEPTTR 3DC (disease control rating): D
Puccinia triticina; [1]
  LV activity at 125.1 g/H PUCCRT 1DP (disease control rating): A (> 80)
  LV activity at 125.1 g/H PUCCRT 3DC (disease control rating): A (> 80)

## COc1ccnc(C(=O)N[C@@H](Cc2ccccc2)C(=O)O[C@@H](C)[C@H](Oc2cccc(F)c2)c2ccccc2)c1OCOC(C)=O [Cmpd 576]
Zymoseptoria tritici; [1]
  SEPTTR 1DP, LV activity at 125.1 g/H (% Control rating): B (≤ 80)
  SEPTTR 3DC, LV activity at 125.1 g/H (% Control rating): D
Puccinia triticina; [1]
  PUCCRT 1DP, LV activity at 125.1 g/H (% Control rating): A (> 80)
  PUCCRT 3DC, LV activity at 125.1 g/H (% Control rating): B (≤ 80)

## CCC(CC)[C@H](Oc1ccc(Cl)cc1)[C@H](C)OC(=O)[C@H](C)NC(=O)c1nccc(OC)c1O [Cmpd 420]
Zymoseptoria tritici
  SEPTTR 1DP disease control rating, HV activity: A (> 80)
  SEPTTR 3DC disease control rating, HV activity: B (≤ 80)
Puccinia triticina
  PUCCRT 1DP disease control rating, HV activity: B (≤ 80)
  PUCCRT 3DC disease control rating, HV activity: B (≤ 80)

## COc1ccnc(C(=O)N[C@@H](C)C(=O)O[C@@H](C)COC2CCCC2)c1O [Cmpd 340]
Zymoseptoria tritici
  SEPTTR 1DP disease control rating, HV activity: B (≤ 80)
  SEPTTR 3DC disease control rating, HV activity: D
Puccinia triticina
  PUCCRT 1DP disease control rating, HV activity: B (≤ 80)
  PUCCRT 3DC disease control rating, HV activity: A (> 80)

## COc1ccnc(C(=O)N[C@@H](C)C(=O)O[C@@H](C)[C@H](Oc2cccc(Cl)c2)C(C)(C)C)c1OC(C)=O [Cmpd 1055]
Zymoseptoria tritici; [1]
  LV activity at 125.1 g/H SEPTTR 1DP (disease control rating): B (≤ 80)
  LV activity at 125.1 g/H SEPTTR 3DC (disease control rating): A (> 80)
Puccinia triticina; [1]
  LV activity at 125.1 g/H PUCCRT 1DP (disease control rating): A (> 80)
  LV activity at 125.1 g/H PUCCRT 3DC (disease control rating): A (> 80)

From patent US20180000085A1, “USE OF PICOLINAMIDE COMPOUNDS WITH FUNGICIDAL ACTIVITY” (DOW AGROSCIENCES LLC, priority 2014, published 2018)
